Measured values: patent US9409893B2, “Heteroaryl derivatives and uses thereof” (Jacobus Pharmaceutical Company, Inc., priority 2012, dated 2016)
Marks after values point to notes of the source that are not given here.

What was measured:
P. falciparum strain D6 = experiment: [3H]-hypoxanthine growth inhibition assay, P. falciparum D6; format: cell-based; conditions: Plasmodium falciparum; P. falciparum D6 (sensitive to chloroquine and pyrimethamine), [3H]-hypoxanthine incorporation; read-out: D6 IC50
How it was run: (§1)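 Parasites cultured in human O Rh+ RBCs in RPMI-1640-LPLF (low PABA and folic acid) with 10% human plasma, pH 6.9, 37° C, 5% O2/5% CO2/90% N2. Sorbitol-synchronised ring-stage cultures started at 1% parasitaemia; growth measured as [3H]-hypoxanthine incorporation in hypoxanthine-free medium. Compound stocks 1 mM in DMSO.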

P. falciparum strain W2 = experiment: [3H]-hypoxanthine growth inhibition assay, P. falciparum W2; format: cell-based; conditions: Plasmodium falciparum; P. falciparum W2 (resistant to chloroquine and pyrimethamine), [3H]-hypoxanthine incorporation; read-out: W2 IC50
How it was run: as §1

hERG potassium channel = hERG potassium channel (Homo sapiens, UniProt Q12809); experiment: Whole cell patch clamp of cloned hERG potassium channels expressed in HEK293 cells; format: cell-based
Description: For in vitro testing, the functional hERG assay using conventional patch clamp electrophysiology is considered the gold standard for assessment of drug interactions with the hERG potassium channel (Yao et al., Br. J. Pharmacol. 2008, 154, 1446-1456). In this assay, hERG channels are expressed in a human embryonic kidney (HEK293) cell line that lacks endogenous IKr.
The objective of this study was to examine the in vitro effects of test articles on the hERG (human ether-à-go-go-related gene) potassium channel current (a surrogate for IKr, the rapidly activating delayed rectifier cardiac potassium current).
All chemicals used in solution preparation were purchased from Sigma-Aldrich (St. Louis, Mo.) unless otherwise noted and were of ACS reagent grade purity or higher. Stock solutions of the test article and the positive control were prepared in dimethyl sulfoxide (DMSO) and stored frozen. Test article and positive control concentrations were prepared fresh daily by diluting stock solutions into a HEPES-buffered physiological saline (HB-PS) solution (composition in mM): NaCl, 137; KCl, 4.0; CaCl2, 1.8; MgCl2, 1; HEPES, 10; Glucose, 10; pH adjusted to 7.4 with NaOH (prepared weekly and refrigerated until use).
HEK/hERG • Organism: Homo sapiens • Designation: 293 • Tissue: Kidney; Transformed with adenovirus 5 DNA; Transfected with human-ether-a-go-go cDNA • Morphology: Epithelial • Age Stage Embryo • Source Strain: ATCC, Manassas, Va. • Source Substrain ChanTest Corporation, Cleveland, Ohio
HEK293 cells were stably transfected with hERG cDNA. Stable transfectants were selected by coexpression with the G418-resistance gene incorporated into the expression plasmid. Selection pressure was maintained by including G418 in the culture medium. Cells were cultured in Dulbecco's Modified Eagle Medium/Nutrient Mixture F-12 (D-MEM/F-12) supplemented with 10% fetal bovine serum, 100 U/mL penicillin G sodium, 100 μg/mL streptomycin sulfate and 500 μg/mL G418.
All experiments were performed at room temperature. Each cell acted as its own control.
Experiments were performed as outlined in the section entitled Experimental Procedures. Concentrations were selected to evaluate the concentration-response relationship of each test article based on the initial results or the solubility limits in vehicle. Each concentration was tested in at least three cells (n≧3).
Cells were transferred to the recording chamber and superfused with vehicle control solution. Micropipette solution for whole cell patch clamp recordings was composed of (mM): potassium aspartate, 130; MgCl2, 5; EGTA, 5; ATP, 4; HEPES, 10; pH adjusted to 7.2 with KOH. Pipette solution was prepared in batches, aliquoted, stored frozen, and a fresh aliquot was thawed each day. Patch pipettes were made from glass capillary tubing using a P-97 micropipette puller (Sutter Instruments, Novato, Calif.). A commercial patch clamp amplifier was used for whole cell recordings. Before digitization, current records were low-pass filtered at one-fifth of the sampling frequency.
Onset and steady state inhibition of hERG current was measured using a pulse pattern with fixed amplitudes (conditioning prepulse: +20 mV for 2 s; test pulse: −50 mV for 2 s) repeated at 10 s intervals, from a holding potential of −80 mV. Peak tail current was measured during the 2 s step to −50 mV.
Each test article at 10 μM was applied to at least 3 cells (n≧3).
One or more test article concentrations were applied sequentially (without washout between test substance concentrations) in ascending order, to each cell (n≧3). A steady state was maintained for at least 30 s before applying test article or positive control. Peak current was measured until a new steady state was achieved.
Steady state was defined by the limiting constant rate of change with time (linear time dependence). The steady state before and after test article application was used to calculate the percentage of current inhibited at each concentration. […]

[1] = tested on: Plasmodium berghei (KBG-173 strain); experiment: Plasmodium berghei assay in vivo (modified Thompson Test) in CD-1 mice; conditions: bid on days 3, 4 and 5; for Average Days Survival: 31 day experiment
Protocol: In vivo antimalarial activity was tested in male or female Charles River CD-1 mice that were 4-5 weeks old and weighed 20-25 g They were housed in groups of 3 or 4 in standard plastic cages with wire tops, Bed-o-Cob® bedding, 12 hr/day of light, and maintained at 75° F. They were fed a standard Ralston Purina mouse chow and the cages and bottles were changed twice a week. Test compounds were ground in a mortar and pestle and diluted with enough vehicle to give a volume of 10 mL/kg of mouse weight. The oral doses were prepared in 0.5% hydroxyethylcellulose (Union Carbide Corp. WP 4400)/0.1% Tween-80 (Fisher Scientific T164-500). The amount of drug was calculated on the free base weight. The mice were infected intraperitoneally on day 0 with 5×10^4 erythrocytes parasitized with Plasmodium berghei (KBG-173 strain) from a donor mouse having a parasitemia between 5-10%. On days 3, 4 and 5 the test compounds were administered bid, spaced 6 hr apart, by oral gavage to the mice. Activity was measured by survival, with full activity defined as all animals living at day 31. Partial activity is defined as days of increased survival versus the infected non-treated controls. This in vivo model is a modification of the Thompson Test. For further description see Ager, A. L, Jr. Rodent Malaria Models. In Handbook of Experimental Pharmacology: Antimalarial Drugs. 1. 68/1; Peters, W., Richards, W. H. G., Eds.: Springer-Verlag: Berlin, 1984, pp. 231-33.

Chain of hERG potassium channel (Q12809 whole entry): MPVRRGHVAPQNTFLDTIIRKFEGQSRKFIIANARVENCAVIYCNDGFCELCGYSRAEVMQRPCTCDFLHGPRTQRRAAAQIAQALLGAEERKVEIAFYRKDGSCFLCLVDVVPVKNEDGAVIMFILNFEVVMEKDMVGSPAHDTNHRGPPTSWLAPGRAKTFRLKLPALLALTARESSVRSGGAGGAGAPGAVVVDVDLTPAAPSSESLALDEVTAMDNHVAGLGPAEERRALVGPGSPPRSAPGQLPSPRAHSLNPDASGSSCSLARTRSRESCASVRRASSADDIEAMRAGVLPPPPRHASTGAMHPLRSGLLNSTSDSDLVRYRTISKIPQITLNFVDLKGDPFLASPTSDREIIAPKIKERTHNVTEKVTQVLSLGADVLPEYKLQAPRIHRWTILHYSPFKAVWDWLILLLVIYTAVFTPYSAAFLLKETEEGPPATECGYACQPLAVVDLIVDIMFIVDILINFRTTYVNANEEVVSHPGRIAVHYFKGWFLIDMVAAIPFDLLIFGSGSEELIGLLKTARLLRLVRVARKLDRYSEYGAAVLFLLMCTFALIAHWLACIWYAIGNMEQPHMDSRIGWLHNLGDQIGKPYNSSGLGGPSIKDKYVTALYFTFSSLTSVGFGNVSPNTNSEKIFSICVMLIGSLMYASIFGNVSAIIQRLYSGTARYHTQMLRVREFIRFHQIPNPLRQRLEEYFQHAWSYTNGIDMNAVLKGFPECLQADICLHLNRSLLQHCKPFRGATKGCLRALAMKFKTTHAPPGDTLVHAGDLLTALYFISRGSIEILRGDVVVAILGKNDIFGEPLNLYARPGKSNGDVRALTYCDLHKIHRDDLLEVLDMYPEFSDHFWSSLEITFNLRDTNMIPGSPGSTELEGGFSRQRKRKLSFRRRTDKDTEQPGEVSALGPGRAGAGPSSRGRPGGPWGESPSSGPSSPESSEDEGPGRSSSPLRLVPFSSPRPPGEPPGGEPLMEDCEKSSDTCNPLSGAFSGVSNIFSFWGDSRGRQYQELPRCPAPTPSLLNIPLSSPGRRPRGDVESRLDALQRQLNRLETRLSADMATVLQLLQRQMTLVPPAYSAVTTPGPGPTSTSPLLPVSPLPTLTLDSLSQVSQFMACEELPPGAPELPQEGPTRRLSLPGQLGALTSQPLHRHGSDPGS

| melting point [°C] | SMILES | IC50 (P. falciparum strain D6) [nM] | IC50 (P. falciparum strain W2) [nM] | IC50 (hERG potassium channel; HEK293/hERG, patch clamp, read-out: IC50 for the inhibitory effect on hERG potassium current) [nM] | Hill coefficient of hERG inhibition (hERG potassium channel; fit of concentration-response data) | inhibition at 0.3 µM (hERG potassium channel; human, HEK293 cells stably expressing hERG, pH 7.4, 0.3 μM, HEK293/hERG, room temperature, read-out: Mean percentage of hERG current inhibited) [%] | inhibition at 1 µM (hERG potassium channel; human, HEK293 cells stably expressing hERG, pH 7.4, 1 μM, HEK293/hERG, room temperature, read-out: Mean percentage of hERG current inhibited) [%] | inhibition at 3 µM (hERG potassium channel; human, HEK293 cells stably expressing hERG, pH 7.4, 3 μM, HEK293/hERG, room temperature, read-out: Mean percentage of hERG current inhibited) [%] | inhibition at 10 µM (hERG potassium channel; human, HEK293 cells stably expressing hERG, pH 7.4, 10 μM, HEK293/hERG, room temperature, read-out: Mean percentage of hERG current inhibited) [%] | Average Days Survival ([1]; 4 mg/kg/day oral) [days] | Average Days Survival ([1]; 8 mg/kg/day oral) [days] | Average Days Survival ([1]; 16 mg/kg/day oral) | Average Days Survival ([1]; 32 mg/kg/day oral) [days] | Average Days Survival ([1]; 64 mg/kg/day oral) [days] | responders at 4 mg/kg ([1]; Plasmodium berghei, 744 h, 4 mg/kg/day oral, CD-1 mice infected with P. berghei, read-out: Number of mice alive at day 31 (converted)) [%] | responders at 8 mg/kg ([1]; Plasmodium berghei, 744 h, 8 mg/kg/day oral, CD-1 mice infected with P. berghei, read-out: Number of mice alive at day 31 (converted)) [%] | responders at 16 mg/kg ([1]; Plasmodium berghei, 744 h, 16 mg/kg/day oral, CD-1 mice infected with P. berghei, read-out: Number of mice alive at day 31 (converted)) [%] | responders at 32 mg/kg ([1]; Plasmodium berghei, 744 h, 32 mg/kg/day oral, CD-1 mice infected with P. berghei, read-out: Number of mice alive at day 31 (converted)) [%] | responders at 64 mg/kg ([1]; Plasmodium berghei, 744 h, 64 mg/kg/day oral, CD-1 mice infected with P. berghei, read-out: Number of mice alive at day 31 (converted)) [%] |
| --- | --- | --- | --- | --- | --- | --- | --- | --- | --- | --- | --- | --- | --- | --- | --- | --- | --- | --- | --- |
| 229 to 232 | CC(C)(C)NCc1cc(C(C)(C)C)cc(-c2ccc(S(C)(=O)=O)nc2)c1O.Cl [Example 43, 4-(tert-Butyl)-2-((tert-butylamino)methyl)-6-(6-(methylsulfonyl)pyridin-3-yl)phenol hydrochloride] | 158 | 100 | – | – | – | – | – | – | – | – | – | – | – | – | – | – | – | – |
| – | CC(C)(C)NCc1cc(C(C)(C)C)cc(-c2ccc(Cl)cc2)c1O [WR-194,965, 4-(tert-butyl)-2-(tert-butylaminomethyl)-6-(4-chlorophenyl)phenol, reference compound] | – | – | 1100 | 1.4 | 12.8 | 47.5 | 80.3 | 97.2 | – | – | – | – | – | – | – | – | – | – |
| – | CC(C)(C)NCc1cc(-c2ccc(F)cc2)cc(-c2ccc(C(F)(F)F)nc2)c1O.Cl [Example 66, 3-((tert-Butylamino)methyl)-4′-fluoro-5-(6-(trifluoromethyl)pyridin-3-yl)-[1,1′-biphenyl]-4-ol hydrochloride] | 70 | 41 | – | – | – | – | – | – | >21.3 | >26 | >31* days | >24 | >7 | 14.3 | 85.7 | 100 | 85.7 | 85.7 |
